PubChem BioAssay AID1963985 (Molecular Pharmacology Branch, DTP, NCI, 2024)

Test system: 252836-082-R-J2-PDC tumor spheroids, viability
Test: Anticancer human tumor 252836-082-R-J2-PDC patient-derived head and neck squamous cell carcinoma cell line growth inhibition [PI3K]
Conditions: spheroids with HUVEC and MSC; for IC50: curve of first compound; for viability, T/C: stronger effect = lower value
Outline: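 Tumor cells grown as multi-cell spheroids with HUVEC endothelial cells and MSC fibroblast-like stroma were treated with targeted agents combined with inavolisib, alpelisib, duvelisib or copanlisib. Doses fell in half-log steps from near clinical Cmax, else from 10 microM. Viability was measured.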
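Note: spheroids exposed to agents for seven days before readout.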
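Throughout, for viability, T/C: percent of vehicle DMSO control viability so 100% = untreated growth.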

## CCN1CCN(Cc2ccc(Nc3ncc(F)c(-c4cc(F)c5nc(C)n(C(C)C)c5c4)n3)nc2)CC1 + CC(Nc1ccc2c(c1)OCCn1cc(N3C(=O)OCC3C(F)F)nc1-2)C(N)=O
Second compound 0.00316 µM
  IC50: > 1 µM
Second compound 0.01 µM
  IC50: > 1 µM
Second compound 0.0316 µM
  IC50: > 1 µM
Second compound 0.1 µM
  IC50: > 1 µM
Second compound 0.316 µM
  IC50: 0.0361 µM
Second compound 1 µM
  IC50: < 0.00316 µM
Second compound 0.00316 µM, first compound 0.00316 µM
  viability, T/C: 87.8%
Second compound 0.00316 µM, first compound 0.01 µM
  viability, T/C: 86.1%
Second compound 0.00316 µM, first compound 0.0316 µM
  viability, T/C: 75.3%
Second compound 0.00316 µM, first compound 0.1 µM
  viability, T/C: 93.1%
Second compound 0.00316 µM, first compound 0.316 µM
  viability, T/C: 82.7%
Second compound 0.00316 µM, first compound 1 µM
  viability, T/C: 76.5%
Second compound 0.01 µM, first compound 0.00316 µM
  viability, T/C: 90.3%
Second compound 0.01 µM, first compound 0.01 µM
  viability, T/C: 82.5%
Second compound 0.01 µM, first compound 0.0316 µM
  viability, T/C: 94.4%
Second compound 0.01 µM, first compound 0.1 µM
  viability, T/C: 78.7%
Second compound 0.01 µM, first compound 0.316 µM
  viability, T/C: 90%
Second compound 0.01 µM, first compound 1 µM
  viability, T/C: 70.3%
Second compound 0.0316 µM, first compound 0.00316 µM
  viability, T/C: 79.1%
Second compound 0.0316 µM, first compound 0.01 µM
  viability, T/C: 79.6%
Second compound 0.0316 µM, first compound 0.0316 µM
  viability, T/C: 73%
Second compound 0.0316 µM, first compound 0.1 µM
  viability, T/C: 74.1%
Second compound 0.0316 µM, first compound 0.316 µM
  viability, T/C: 80.6%
Second compound 0.0316 µM, first compound 1 µM
  viability, T/C: 81.3%
Second compound 0.1 µM, first compound 0.00316 µM
  viability, T/C: 73.7%
Second compound 0.1 µM, first compound 0.01 µM
  viability, T/C: 59.7%
Second compound 0.1 µM, first compound 0.0316 µM
  viability, T/C: 58.8%
Second compound 0.1 µM, first compound 0.1 µM
  viability, T/C: 66.5%
Second compound 0.1 µM, first compound 0.316 µM
  viability, T/C: 52.3%
Second compound 0.1 µM, first compound 1 µM
  viability, T/C: 54.2%
Second compound 0.316 µM, first compound 0.00316 µM
  viability, T/C: 51.2%
Second compound 0.316 µM, first compound 0.01 µM
  viability, T/C: 47.4%
Second compound 0.316 µM, first compound 0.0316 µM
  viability, T/C: 51.5%
Second compound 0.316 µM, first compound 0.1 µM
  viability, T/C: 53.3%
Second compound 0.316 µM, first compound 0.316 µM
  viability, T/C: 50.8%
Second compound 0.316 µM, first compound 1 µM
  viability, T/C: 44.3%
Second compound 1 µM, first compound 0.00316 µM
  viability, T/C: 47%
Second compound 1 µM, first compound 0.01 µM
  viability, T/C: 43.9%
Second compound 1 µM, first compound 0.0316 µM
  viability, T/C: 43.5%
Second compound 1 µM, first compound 0.1 µM
  viability, T/C: 36.8%
Second compound 1 µM, first compound 0.316 µM
  viability, T/C: 40.5%
Second compound 1 µM, first compound 1 µM
  viability, T/C: 31.8%

## Cn1cnc2c(F)c(Nc3ccc(Br)cc3Cl)c(C(=O)NOCCO)cc21 + CC(Nc1ccc2c(c1)OCCn1cc(N3C(=O)OCC3C(F)F)nc1-2)C(N)=O
Second compound 0.00316 µM
  IC50: > 3 µM
Second compound 0.01 µM
  IC50: 2.42 µM
Second compound 0.0316 µM
  IC50: 1.5 µM
Second compound 0.1 µM
  IC50: 0.558 µM
Second compound 0.316 µM
  IC50: < 0.00949 µM
Second compound 1 µM
  IC50: < 0.00949 µM
Second compound 0.00316 µM, first compound 0.00949 µM
  viability, T/C: 81.4%
Second compound 0.00316 µM, first compound 0.03 µM
  viability, T/C: 73.8%
Second compound 0.00316 µM, first compound 0.0949 µM
  viability, T/C: 86.3%
Second compound 0.00316 µM, first compound 0.3 µM
  viability, T/C: 79.6%
Second compound 0.00316 µM, first compound 0.949 µM
  viability, T/C: 72.4%
Second compound 0.00316 µM, first compound 3 µM
  viability, T/C: 52.1%
Second compound 0.01 µM, first compound 0.00949 µM
  viability, T/C: 81.7%
Second compound 0.01 µM, first compound 0.03 µM
  viability, T/C: 71.2%
Second compound 0.01 µM, first compound 0.0949 µM
  viability, T/C: 78.5%
Second compound 0.01 µM, first compound 0.3 µM
  viability, T/C: 76.9%
Second compound 0.01 µM, first compound 0.949 µM
  viability, T/C: 73.8%
Second compound 0.01 µM, first compound 3 µM
  viability, T/C: 44.5%
Second compound 0.0316 µM, first compound 0.00949 µM
  viability, T/C: 66.1%
Second compound 0.0316 µM, first compound 0.03 µM
  viability, T/C: 60.7%
Second compound 0.0316 µM, first compound 0.0949 µM
  viability, T/C: 77.9%
Second compound 0.0316 µM, first compound 0.3 µM
  viability, T/C: 65.2%
Second compound 0.0316 µM, first compound 0.949 µM
  viability, T/C: 55.1%
Second compound 0.0316 µM, first compound 3 µM
  viability, T/C: 42.4%
Second compound 0.1 µM, first compound 0.00949 µM
  viability, T/C: 58.9%
Second compound 0.1 µM, first compound 0.03 µM
  viability, T/C: 54.7%
Second compound 0.1 µM, first compound 0.0949 µM
  viability, T/C: 58.4%
Second compound 0.1 µM, first compound 0.3 µM
  viability, T/C: 51.7%
Second compound 0.1 µM, first compound 0.949 µM
  viability, T/C: 47.8%
Second compound 0.1 µM, first compound 3 µM
  viability, T/C: 31.4%
Second compound 0.316 µM, first compound 0.00949 µM
  viability, T/C: 49.9%
Second compound 0.316 µM, first compound 0.03 µM
  viability, T/C: 47.6%
Second compound 0.316 µM, first compound 0.0949 µM
  viability, T/C: 47.5%
Second compound 0.316 µM, first compound 0.3 µM
  viability, T/C: 46.3%
Second compound 0.316 µM, first compound 0.949 µM
  viability, T/C: 30.8%
Second compound 0.316 µM, first compound 3 µM
  viability, T/C: 18.2%
Second compound 1 µM, first compound 0.00949 µM
  viability, T/C: 42.5%
Second compound 1 µM, first compound 0.03 µM
  viability, T/C: 40%
Second compound 1 µM, first compound 0.0949 µM
  viability, T/C: 37%
Second compound 1 µM, first compound 0.3 µM
  viability, T/C: 38%
Second compound 1 µM, first compound 0.949 µM
  viability, T/C: 29.1%
Second compound 1 µM, first compound 3 µM
  viability, T/C: 13.3%
